Assay results from US8883782B2, “Spiro-tetracyclic ring compounds as beta-secretase modulators and methods of use” (Amgen Inc., priority 2010, dated 2014).
pIC50: −log10 of the molar value. Like-named read-outs stand apart in the source and are kept apart here.

Assays:
[1] = molecular target: Beta Secretase enzyme (BACE) (Homo sapiens, UniProt P56817); experiment: In vitro enzymatic BACE FRET (fluorescence resonance energy transfer) assay; assay type: biochemical; settings: average IC50, enzyme assay; read-out: BACE 1 FRET assay
Chain of Beta Secretase enzyme (BACE) (P56817 46-501, species assumed): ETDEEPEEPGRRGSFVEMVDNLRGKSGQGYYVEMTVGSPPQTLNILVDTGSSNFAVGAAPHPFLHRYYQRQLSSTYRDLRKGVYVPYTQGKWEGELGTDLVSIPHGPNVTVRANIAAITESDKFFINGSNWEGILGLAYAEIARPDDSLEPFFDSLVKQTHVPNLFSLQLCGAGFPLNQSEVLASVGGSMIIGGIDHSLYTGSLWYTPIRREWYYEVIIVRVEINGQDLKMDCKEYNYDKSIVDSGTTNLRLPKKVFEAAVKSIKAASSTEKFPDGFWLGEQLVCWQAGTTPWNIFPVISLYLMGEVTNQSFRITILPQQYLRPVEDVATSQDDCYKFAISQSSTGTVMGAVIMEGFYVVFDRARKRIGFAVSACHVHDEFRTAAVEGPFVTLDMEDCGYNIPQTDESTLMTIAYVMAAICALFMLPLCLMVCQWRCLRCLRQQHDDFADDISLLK
Summary of the method: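 Acetate buffer (0.05 M, pH 4.2), 10% DMSO final, 100 uM nonionic detergent genapol. Substrate addition (50 nM FRET peptide) initiates; one-hour incubation; Tris raises pH to neutrality before fluorescence measurement.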

[2] = tested on: Aβ40 in conditioned medium of cells stably expressing Amyloid Precursor Protein (APP); experiment: In vitro BACE cell-based assay (Aβ40 in conditioned medium, sandwich ELISA); settings: Homo sapiens, read-out: HEK cell assay
Summary of the method: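 The sandwich ELISA pairs pAb40 capture (3 h, 4 °C) with 6E10 detection (2 h, 4 °C) and a streptavidin-europium TRF read-out. Supernatants come from APP-expressing cells grown in 10% FBS DMEM.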

[3] = HEK293, average IC50, HEK cells

SMILES	pIC50 [1]	pIC50 [2, 3]	pIC50 ([2]; HEK293, average IC50)
N#Cc1cccc(-c2ccc3c(c2)[C@@]2(COC(N)=N2)c2cc(N4CC[C@H](F)C4)ncc2O3)c1 [Example 426, 3-((5S)-2′-amino-3-((3S)-3-fluoro-1-pyrrolidinyl)spiro[chromeno[2,3-c]pyridine-5,4′-[1,3]oxazol]-7-yl)benzonitrile]	8.46	7.77	–
CC1(C)C[C@H](c2cnc3c(c2)[C@]2(COC(N)=N2)c2cc(-c4cncc(Cl)c4)ccc2O3)CCO1 [Example 475, (5S)-7-(5-chloro-3-pyridinyl)-3-((4R)-2,2-dimethyltetrahydro-2H-pyran-4-yl)spiro[chromeno[2,3-b]pyridine-5,4′-[1,3]oxazol]-2′-amine]	8.66	8.14	–
CC1(C#Cc2cnc3c(c2)[C@]2(COC(N)=N2)c2c(ccc(-c4cncnc4)c2F)O3)COC1 [Example 344, (5R)-6-fluoro-3-((3-methyl-3-oxetanyl)ethynyl)-7-(5-pyrimidinyl)spiro[chromeno[2,3-b]pyridine-5,4′-[1,3]oxazol]-2′-amine]	9.00	–	8.19
CC1(C)C[C@H](c2cc3c(cn2)Oc2ccc(-c4cccnc4F)cc2[C@@]32COC(N)=N2)CCO1 [Example 377, (5S)-3-((4R)-2,2-dimethyltetrahydro-2H-pyran-4-yl)-7-(2-fluoro-3-pyridinyl)spiro[chromeno[2,3-c]pyridine-5,4′-[1,3]oxazol]-2′-amine]	8.23	–	7.53
CC1(C#Cc2cc3c(nc2F)Oc2ccc(-c4cncc(F)c4)cc2[C@]32COC(N)=N2)COC1 [Example 906, (5R)-2-fluoro-7-(5-fluoro-3-pyridinyl)-3-((3-methyl-3-oxetanyl)ethynyl)spiro[chromeno[2,3-b]pyridine-5,4′-[1,3]oxazol]-2′-amine]	7.27	5.83	–
NC1=N[C@@]2(CS1)c1cc(-c3cccnc3)ccc1Oc1c2cc(-c2ccnc(F)c2)nc1F [Example 1030, (5S)-1-fluoro-3-(2-fluoro-4-pyridinyl)-7-(3-pyridinyl)spiro[chromeno[2,3-c]pyridine-5,4′-[1,3]thiazol]-2′-amine]	9.70	–	8.30
COc1ncc(F)cc1-c1ccc2c(c1)[C@@]1(COC(N)=N1)c1cc(/C=C/C(C)(C)C)ncc1O2 [Example 407, (5S)-3-((1E)-3,3-dimethyl-1-buten-1-yl)-7-(5-fluoro-2-methoxy-3-pyridinyl)spiro[chromeno[2,3-c]pyridine-5,4′-[1,3]oxazol]-2′-amine]	8.28	6.80	–
Cn1ccc(-c2cnc3c(c2)[C@]2(COC(N)=N2)c2cc(C#CC4CC4)ccc2O3)n1 [Example 183, (5S)-7-(cyclopropylethynyl)-3-(1-methyl-1H-pyrazol-3-yl)spiro[chromeno[2,3-b]pyridine-5,4′-[1,3]oxazol]-2′-amine]	7.29	–	6.72
N#Cc1cccc(-c2ccc3c(c2)C2(COC(N)=N2)c2cc(C4CCOCC4)nc(F)c2O3)c1 (centres unmarked) [Example 751, 3-(2′-amino-1-fluoro-3-(tetrahydro-2H-pyran-4-yl)spiro[chromeno[2,3-c]pyridine-5,4′-[1,3]oxazol]-7-yl)benzonitrile]	8.49	–	7.38
CC(C)(C#N)COc1cc(F)c2c(c1)[C@]1(COC(N)=N1)c1cc(-c3cnccn3)ccc1O2 [Example 93, (S)-3-(2-amino-5′-fluoro-2′-(pyrazin-2-yl)-5H-spiro[oxazole-4,9′-xanthene]-7′-yloxy)-2,2-dimethylpropanenitrile]	8.55	–	7.84
N#Cc1cccc(-c2ccc3c(c2)[C@@]2(CSC(N)=N2)c2cc(C4=CCCOC4)cnc2O3)c1F [Example 778, 3-((5S)-2′-amino-3-(5,6-dihydro-2H-pyran-3-yl)spiro[chromeno[2,3-b]pyridine-5,4′-[1,3]thiazol]-7-yl)-2-fluorobenzonitrile]	8.55	–	7.27
NC1=N[C@@]2(CO1)c1cc(-c3cccnc3F)ccc1Oc1c(F)cc(C3=CCOC3)cc12 [Example 291, (4S)-2′-(2,5-dihydro-3-furanyl)-4′-fluoro-7′-(2-fluoro-3-pyridinyl)spiro[1,3-oxazole-4,9′-xanthen]-2-amine]	9.22	–	8.10
COc1cc(-c2cc3c(cn2)Oc2ccc(-c4cccnc4F)cc2[C@@]32COC(N)=N2)ccc1F [Example 537, (5S)-3-(4-fluoro-3-methoxyphenyl)-7-(2-fluoro-3-pyridinyl)spiro[chromeno[2,3-c]pyridine-5,4′-[1,3]oxazol]-2′-amine]	8.12	6.52	–
Cc1noc(C)c1-c1cccc(-c2ccc3c(c2)[C@@]2(COC(N)=N2)c2cc(C4=CCOCC4)ncc2O3)c1 [Example 245, (5S)-3-(3,6-dihydro-2H-pyran-4-yl)-7-(3-(3,5-dimethyl-4-isoxazolyl)phenyl)spiro[chromeno[2,3-c]pyridine-5,4′-[1,3]oxazol]-2′-amine]	7.64	–	6.28
NC1=N[C@@]2(CO1)c1cc(-c3cccnc3F)ccc1Oc1c2cc([C@@H]2CCCCO2)nc1F [Example 659, (5S)-1-fluoro-7-(2-fluoro-3-pyridinyl)-3-((2S)-tetrahydro-2H-pyran-2-yl)spiro[chromeno[2,3-c]pyridine-5,4′-[1,3]oxazol]-2′-amine]	8.85	7.72	–
NC1=N[C@@]2(CO1)c1cc(C3=CCOCC3)cnc1Oc1ccc(-c3cccnc3F)c(F)c12 [Example 347, (5S)-3-(3,6-dihydro-2H-pyran-4-yl)-6-fluoro-7-(2-fluoro-3-pyridinyl)spiro[chromeno[2,3-b]pyridine-5,4′-[1,3]oxazol]-2′-amine]	6.45	–	6.34
NC1=N[C@@]2(CO1)c1cc(Oc3ccc(Cl)cn3)ccc1Oc1c(F)cc(N3CCOCC3)cc12 [Example 1061, (4S)-7′-((5-chloro-2-pyridinyl)oxy)-4′-fluoro-2′-(4-morpholinyl)spiro[1,3-oxazole-4,9′-xanthen]-2-amine]	7.24	–	6.27
C[Si](C)(C)c1cc2c(nc1F)Oc1ccc(Br)cc1[C@@]21COC(N)=N1 [Example 90, (5S)-7-bromo-2-fluoro-3-(trimethylsilyl)spiro[chromeno[2,3-b]pyridine-5,4′-[1,3]oxazol]-2′-amine]	6.06	–	5.00
COc1cccc(Nc2ccc3c(c2)[C@@]2(COC(N)=N2)c2cc(N4CCOCC4)cc(F)c2O3)c1 [Example 198, (4S)-5′-fluoro-N~2~′-(3-methoxyphenyl)-7′-(4-morpholinyl)spiro[1,3-oxazole-4,9′-xanthene]-2,2′-diamine]	7.11	–	6.24
CC1(C#Cc2cnc3c(c2)[C@]2(COC(N)=N2)c2cc(-c4ccc(F)nc4)ccc2O3)COC1 [Example 167, (5S)-7-(6-fluoro-3-pyridinyl)-3-((3-methyl-3-oxetanyl)ethynyl)spiro[chromeno[2,3-b]pyridine-5,4′-[1,3]oxazol]-2′-amine]	8.59	–	7.86
CC1(C#Cc2ccc3c(c2)[C@@]2(COC(N)=N2)c2cc(C4=CCOCC4)cnc2O3)COC1 [Example 462, (5S)-3-(3,6-dihydro-2H-pyran-4-yl)-7-((3-methyl-3-oxetanyl)ethynyl)spiro[chromeno[2,3-b]pyridine-5,4′-[1,3]oxazol]-2′-amine]	8.23	7.72	–
CC1(C#Cc2cnc3c(c2)[C@]2(COC(N)=N2)c2cc(-c4cncc(F)c4)ccc2O3)COC1 [Example 458, (5S)-7-(5-fluoro-3-pyridinyl)-3-((3-methyl-3-oxetanyl)ethynyl)spiro[chromeno[2,3-b]pyridine-5,4′-[1,3]oxazol]-2′-amine]	8.92	8.29	–
CC1(COc2cc3c(cc2F)Oc2ccc(-c4ccc(F)nc4)cc2[C@@]32COC(N)=N2)COC1 [Example 326, (4S)-3′-fluoro-7′-(6-fluoro-3-pyridinyl)-2′-((3-methyl-3-oxetanyl)methoxy)spiro[1,3-oxazole-4,9′-xanthen]-2-amine]	7.71	–	7.21
NC1=N[C@@]2(CO1)c1cc(-c3cccnc3F)ccc1Oc1c(F)cc(-c3ccncc3)cc12 [Example 203, (4S)-4′-fluoro-7′-(2-fluoro-3-pyridinyl)-2′-(4-pyridinyl)spiro[1,3-oxazole-4,9′-xanthen]-2-amine]	8.96	–	8.11
NC1=N[C@@]2(CO1)c1cc(-c3cccnc3F)ccc1Oc1c2cc(C2=CCCCO2)nc1F [Example 657, (5S)-3-(3,4-dihydro-2H-pyran-6-yl)-1-fluoro-7-(2-fluoro-3-pyridinyl)spiro[chromeno[2,3-c]pyridine-5,4′-[1,3]oxazol]-2′-amine]	9.40	8.30	–
NC1=N[C@@]2(CO1)c1cc(-c3cccnc3F)c(F)cc1Oc1ncc(-c3ccc(F)nc3)cc12 [Example 896, (5S)-8-fluoro-7-(2-fluoro-3-pyridinyl)-3-(6-fluoro-3-pyridinyl)spiro[chromeno[2,3-b]pyridine-5,4′-[1,3]oxazol]-2′-amine]	8.62	7.13	–
COc1ccc2c(c1)[C@@]1(COC(N)=N1)c1cc(C3(O)CCOCC3)cc(F)c1O2 [Example 938, 4-((4S)-2-amino-4′-fluoro-7′-methoxyspiro[1,3-oxazole-4,9′-xanthen]-2′-yl)tetrahydro-2H-pyran-4-ol]	5.35	5.41	–
NC1=N[C@@]2(CO1)c1cc(-c3cccnc3F)c(F)cc1Oc1c(F)cc(C3CCOCC3)cc12 [Example 872, (4S)-3′,5′-difluoro-2′-(2-fluoro-3-pyridinyl)-7′-(tetrahydro-2H-pyran-4-yl)spiro[1,3-oxazole-4,9′-xanthen]-2-amine]	9.22	7.82	–
